Measurements as given in article PMC6588697, “Lugdunin amplifies innate immune responses in the skin in synergy with host- and microbiota-derived factors” (Nature Communications, 2019).
Values joined by “and” are separate entries in the source; they are usually repeats but may differ in a detail not shown here. Identical values can stand only once.

How the values were obtained:
[1] = system: HEK293 cells; assay: CXCL8 release by HEK-control cells (LEGENDplex); format: cell-based, human; conditions: lugdunin 2 µM, 5 h, two technical replicates, Fig 2a
Experimental: Fig. 2 Induction of chemokine (C-X-C motif) ligand 8/macrophage inflammatory protein-2 (CXCL8/MIP-2) by lugdunin is TLR2/MyD88-dependent. a HEK-control or HEK-TLR2 cells were treated with 2 μM lugdunin for 5 h and subsequently the CXCL8 concentration in the supernatant was analyzed by LEGENDplex^TM (BioLegend). Shown is one representative experiment of three independent experiments with two technical replicates ± s.e.m. b HEK-control or HEK-TLR2 cells were treated with increasing concentrations of lugdunin for 5 h and subsequently expression of CXCL8 was analyzed and normalized to actin. Shown is one representative experiment of three independent experiments with two technical replicates ± s.e.m. c Schematic overview of the mouse experiments: 6–8-week-old female C5BL/6 WT, MyD88-knockout (ko), or 5xTLR-ko mice were epicutaneously treated with 1.5 µg lugdunin or phosphate-buffered saline (PBS) as a control. […] Significant differences to control treatments were analyzed by an unpaired two-tailed t test (*P < 0.05; **P < 0.01; ***P < 0.001). f Representative MIP-2-stained paraffin-embedded mouse skin sections. […]
Supplementary Figure 2: CXCL8 controls and other cytokines in mouse skin 46 a: HEK-control cells or HEK -TLR2 cells were treated with 100 ng/mL Pam2Cys for 5 47 hours and subsequently the CXCL8 concentration in the supernatant was analyzed. […]

[2] = system: HEK293 cells; assay: CXCL8 expression in HEK-control cells (qRT-PCR); format: cell-based, human; conditions: 5 h, Fig 2b
Experimental: Fig. 2 Induction of chemokine (C-X-C motif) ligand 8/macrophage inflammatory protein-2 (CXCL8/MIP-2) by lugdunin is TLR2/MyD88-dependent. a HEK-control or HEK-TLR2 cells were treated with 2 μM lugdunin for 5 h and subsequently the CXCL8 concentration in the supernatant was analyzed by LEGENDplex^TM (BioLegend). Shown is one representative experiment of three independent experiments with two technical replicates ± s.e.m. b HEK-control or HEK-TLR2 cells were treated with increasing concentrations of lugdunin for 5 h and subsequently expression of CXCL8 was analyzed and normalized to actin. Shown is one representative experiment of three independent experiments with two technical replicates ± s.e.m. c Schematic overview of the mouse experiments: 6–8-week-old female C5BL/6 WT, MyD88-knockout (ko), or 5xTLR-ko mice were epicutaneously treated with 1.5 µg lugdunin or phosphate-buffered saline (PBS) as a control. After 24 h, mice were euthanized, 4 mm skin punches were taken, and further cultured in vitro for 10 h followed by cytokine analysis of the culture supernatant by LEGENDplex^TM (BioLegend). d, e Shown are the mean concentrations of IL-1α (d) or MIP-2 (e) in the skin culture supernatant of two skin punches from four mice each ± s.e.m. Significant differences to control treatments were analyzed by an unpaired two-tailed t test (*P < 0.05; **P < 0.01; ***P < 0.001). f Representative MIP-2-stained paraffin-embedded mouse skin sections. Scale bar, 100 µM. Source data are provided as a Source Data file
Quantitative reverse transcription-polymerase chain reaction (qRT-PCR) was performed in 10 µL reaction volume with SYBR^TM Green PCR Master Mix (Thermo Fisher) according to the manufacturer’s instructions using a LightCycler 96 (Roche Life Science). The initial denaturation step was at 95 °C for 5 min, followed by 40 cycles with 10 s each for the denaturation step at 95 °C, the annealing at individual temperature, and the elongation at 72 °C. Primer sequences and respective annealing temperatures are listed in Supplementary Table 1. […]

[3] = system: mouse skin; assay: Immunohistochemistry of mouse skin sections (LL-37, MIP-2, MPO); format: in vivo
Experimental: For immunohistochemical stainings of mouse skin, […] tissue sections were de-paraffinized. For MPO staining, antigen retrieval was performed in EDTA buffer at pH 9 (Thermo Fisher Scientific) for 5 min, and for MIP-2 and LL-37, citrate buffer at pH 6 for 9 min was used. Antigen retrieval was performed in a pressure cooker before a slow cooling down of the samples in the buffer. Afterwards, tissue sections were washed in PBS and blocked in 5% donkey serum in PBS containing 0.05% Triton X-100 for 90 min. For MPO staining, tissue sections were subsequently incubated overnight at 4 °C in a humid chamber with a MPO-specific antibody (R&D Systems, Cat#AF3667) diluted 1:50 in a blocking buffer. For MIP-2 and LL-37 staining, tissue sections were first incubated with primary enhancer (Lab Vision™ UltraVision™ LP Detection System, Thermo Fisher Scientific) for 20 min at room temperature, washed, and then incubated with AP polymer (Lab Vision™ UltraVision™ LP Detection System, Thermo Fisher Scientific) for 30 min at room temperature in a humid chamber, followed by incubation with the primary antibodies MIP-2 (Thermo Scientific, Cat#701126, 1:10 in blocking buffer) and LL-37 (Novus Biologicals, Cat#NB100-98689, 1:200 in blocking buffer) overnight at 4 °C in a humid chamber. The next day, tissue sections were washed and incubated with a 1:250 dilution of alkaline phosphatase-coupled secondary antibody (Novus Biologicals) for 90 min in a humid chamber at room temperature. After washing in PBS, staining was performed by using the Lab Vision^TM liquid fast red substrate system (Thermo Fisher Scientific) according to the manufacturer’s instructions. After washing in water, hematoxylin–eosin staining (Agilent/Dako) was performed for 2 min. After another washing step in water, tissue sections were mounted with Kaiser’s glycerol gelatine (Merck).

In the case of Lugdunin, the “CXCL8 concentration in supernatant” value [1] is reported as 39.328 and 39.600, the “CXCL8 expression normalized to actin” value ([2]; lugdunin 0.5 µM, medium = 1, two technical replicates) is reported as 1.3 and 1.16 and the “CXCL8 expression normalized to actin” value ([2]; lugdunin 1 µM, two technical replicates) is reported as 1.15 and 1.02. The “CXCL8 expression normalized to actin” value ([2]; lugdunin 2 µM, two technical replicates) was 2.66 and 2.46, the “CXCL8 expression normalized to actin” value ([2]; lugdunin 3 µM, two technical replicates) was 1.96 and 1.97 and the “CXCL8 expression normalized to actin” value ([2]; lugdunin 5 µM, two technical replicates) was 2.91 and 2.73. The “CXCL8 expression normalized to actin” value ([2]; lugdunin 10 µM, two technical replicates) was 1.84 and 1.91, the “MPO-positive cells in mouse skin sections (IHC, in words)” value ([3]; epicutaneous application, Fig 3e) was “recruitment of MPO-positive cells into the dermis” and the “LL-37 in mouse skin sections (IHC, in words)” value ([3]; epicutaneous application, Supp Fig 1) was “expression of LL-37 in keratinocytes was confirmed”. For the same substance, the “MIP-2 in mouse skin sections (IHC, in words)” value ([3]; epicutaneous treatment, Fig 2f) was “MIP-2 production by keratinocytes in the epidermis and the hair follicles”.
